Source: US20250332173A1, “COMPOUNDS AND METHODS FOR MODULATING NUCLEIC ACID SPLICING” (REMIX THERAPEUTICS INC., priority 2021, published 2025)
Like-named read-outs stand apart in the source and are kept apart here.

Tests used:
SMN2 mRNA = assay: RT-qPCR splicing assay, SMN2 canonical junction (CJ) mRNA; assay type: cell-based, human; settings: Homo sapiens; Table 5 panel; canonical junction qPCR; compound concentration having 50% response in CJ decrease; read-out: SMN2 IC50 (decrease in CJ mRNA levels)
Summary of the method: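 Exposure: 24 h, 37 °C, 11-point 3-fold dilutions from 10 uM final, DMSO at or below 0.25%, in A673 or K562 cells. Detection: cell-lysate RT-qPCR of canonical junction mRNA relative to GAPDH, GUSB or PPIA.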

HTT mRNA = assay: RT-qPCR splicing assay, HTT canonical junction (CJ) and alternative junction (AJ) mRNA; assay type: cell-based, human; settings: Homo sapiens; for AC50: increase in HTT alternative junction (AJ) mRNA, read-out: HTT AJ AC50
Summary of the method: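 24 h treatment, 37 °C/5% CO2; A673 or K562; 11-pt 3-fold series, top 10 uM final; DMSO ≤0.25%. Cell lysis with DNase I, then 1-step RT-qPCR. Housekeeping normalization: PPIA (A673), GAPDH or GUSB (K562).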

[1] = decrease in HTT canonical junction (CJ) mRNA, RT-qPCR, read-out: HTT CJ IC50
[2] = Table 5 panel, canonical junction qPCR, compound concentration having 50% response in CJ decrease, read-out: HTT IC50 (decrease in CJ mRNA levels)

Row | SMILES | IC50 (SMN2 mRNA) | IC50 (HTT mRNA; [1]) | AC50 (HTT mRNA; RT-qPCR) | IC50 (HTT mRNA; [2])
1 | Cc1cc(-c2cc(F)c3c(=O)n(C4CCNC5(CC5)C4)ccc3c2)cc2c1nc(C)n2C (stereo not shown) [Compound 429] | > 10000 nM | > 10000 nM | > 10000 nM | > 10000 nM
2 | Cc1cn2nc(-c3ccc4c(=O)n(C5CCCNC5)ccc4c3)cc(C)c2n1 (stereo in doubt) [Compound 411, 6-{2,8-dimethylimidazo[1,2-b]pyridazin-6-yl}-2-[(3R)-piperidin-3-yl]isoquinolin-1-one] | 100 to 1000 nM | 1000 to 10000 nM | 1000 to 10000 nM | 1000 to 10000 nM
3 | Cc1cn2nc(-c3cc(F)c4c(=O)n([C@H]5CCNC6(CC6)C5)ncc4c3)cc(C)c2n1 [Compound 447] | < 100 nM | < 100 nM | < 100 nM | < 100 nM
4 | Cn1cc2c(n1)CCN(c1cc(F)c3c(=O)n(C4CCNCC4)cnc3c1)C2 [Compound 365, 5-fluoro-7-(2-methyl-2,4,6,7-tetrahydro-5H-pyrazolo[4,3-c]pyridin-5-yl)-3-(piperidin-4-yl)quinazolin-4(3H)-one] | 100 to 1000 nM | > 10000 nM | > 10000 nM | > 10000 nM
5 | Cn1cc2cc(-c3cc(F)c4c(=O)n(C5CCNC6(CC6)C5)ccc4c3)c(O)c(F)c2n1 (stereo not shown) [Compound 420, 2-{4-azaspiro[2.5]octan-7-yl}-8-fluoro-6-(7-fluoro-6-hydroxy-2-methylindazol-5-yl)isoquinolin-1-one] | < 100 nM | 1000 to 10000 nM | 1000 to 10000 nM | 1000 to 10000 nM
6 | COc1cc2c(=O)n(C3CCNCC3)ccc2cc1-c1cc(C)c2nc(C)cn2n1 [Compound 449, 6-{2,8-dimethylimidazo[1,2-b]pyridazin-6-yl}-7-methoxy-2-(piperidin-4-yl)isoquinolin-1-one] | > 10000 nM | > 10000 nM | > 10000 nM | > 10000 nM
7 | Cn1cc2cc(-n3cnc4cc(C5CCNCC5)ccc4c3=O)ccc2n1 [Compound 172] | > 10000 nM | > 10000 nM | > 10000 nM | > 10000 nM
8 | Cc1cn2cc(-c3ccc4c(=O)n(C5CCNC5)cc(C)c4c3)cc(C#N)c2n1 (stereo not shown) [Compound 442, 2-methyl-6-[4-methyl-1-oxo-2-(pyrrolidin-3-yl)isoquinolin-6-yl]imidazo[1,2-a]pyridine-8-carbonitrile] | 1000 to 10000 nM | > 10000 nM | > 10000 nM | > 10000 nM
9 | Cc1nc2c(C)cc(-c3cc(F)c4c(=O)n(C5CCNC6(CC6)C5)ccc4c3)cc2o1 (stereo not shown) [Compound 418, 2-{4-azaspiro[2.5]octan-7-yl}-6-(2,4-dimethyl-1,3-benzoxazol-6-yl)-8-fluoroisoquinolin-1-one] | < 100 nM | < 100 nM | < 100 nM | < 100 nM
10 | Cc1cn2cc(-c3ccc4c(=O)n([C@H]5CCNC5)cc(C)c4c3)cc(C#N)c2n1 [Compound 456, (S)-2-methyl-6-(4-methyl-1-oxo-2-(pyrrolidin-3-yl)-1,2-dihydroisoquinolin-6-yl)imidazo[1,2-a]pyridine-8-carbonitrile] | 1000 to 10000 nM | > 10000 nM | > 10000 nM | > 10000 nM
11 | Cc1cn2cc(-c3cc(F)c4c(=O)n(C5CCNC6(CC6)C5)ccc4c3)cc(C)c2n1 (stereo not shown) [Compound 416, 2-{4-azaspiro[2.5]octan-7-yl}-6-{2,8-dimethylimidazo[1,2-a]pyridin-6-yl}-8-fluoroisoquinolin-1-one] | < 100 nM | 100 to 1000 nM | 100 to 1000 nM | 100 to 1000 nM
12 | Cc1cn2cc(-c3cc(F)c4c(=O)n(C5CCOC5)cnc4c3)cc(C#N)c2n1 (stereo not shown) [Compound 366, 6-[5-fluoro-4-oxo-3-(oxolan-3-yl)quinazolin-7-yl]-2-methylimidazo[1,2-a]pyridine-8-carbonitrile] | 1000 to 10000 nM | 1000 to 10000 nM | 1000 to 10000 nM | 1000 to 10000 nM
13 | Cc1cc(-c2cc(F)c3c(=O)n(C4CCNC5(CC5)C4)ccc3c2)nc2cn(C)nc12 (stereo not shown) [Compound 431] | < 100 nM | < 100 nM | < 100 nM | < 100 nM
14 | Cc1cn2nc(-c3cc(F)c4c(=O)n(C5CCNC5)ccc4c3)cc(C)c2n1 (stereo in doubt) [Compound 392, (S)-6-(2,8-dimethylimidazo[1,2-b]pyridazin-6-yl)-8-fluoro-2-(pyrrolidin-3-yl)isoquinolin-1(2H)-one] | < 100 nM | 1000 to 10000 nM | 1000 to 10000 nM | 1000 to 10000 nM
15 | Cc1cn2cc(-c3cc(F)c4c(=O)n(C5CCNC6(CC6)C5)ccc4c3)ncc2n1 (stereo not shown) [Compound 428, 8-fluoro-6-(2-methylimidazo[1,2-a]pyrazin-6-yl)-2-(4-azaspiro[2.5]octan-7-yl)isoquinolin-1(2H)-one] | < 100 nM | 1000 to 10000 nM | 1000 to 10000 nM | 1000 to 10000 nM
16 | Cn1cc2cc(-n3cnc4cc(C5=CC6CCC(C5)N6)ccc4c3=O)ccc2n1 (stereo not shown) [Compound 160] | > 10000 nM | > 10000 nM | > 10000 nM | > 10000 nM
